# Target: Recombinant human cathepsin S (CatS) (Homo sapiens, UniProt P25774)
# Test: Recombinant human cathepsin S (CatS) inhibition assay, fluorogenic substrate Z-Valine-Valine-Arginine-AMC;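 also: Baculovirus-expressed CatS in pH 5.0 sodium acetate buffer with DTT and NaCl, fluorescence read each minute over 20 min, inhibition derived from rate slope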
# Conditions: not given
# Chain of Recombinant human cathepsin S (CatS) (P25774 115-331): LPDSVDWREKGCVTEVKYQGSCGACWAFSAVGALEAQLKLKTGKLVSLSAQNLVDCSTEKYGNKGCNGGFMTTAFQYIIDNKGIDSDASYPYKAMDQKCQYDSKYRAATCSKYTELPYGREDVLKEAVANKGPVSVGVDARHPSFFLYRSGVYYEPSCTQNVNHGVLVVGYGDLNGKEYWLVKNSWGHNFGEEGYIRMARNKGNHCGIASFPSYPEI
row,IC50 [nM],SMILES
1,50,"CS(=O)(=O)N1CCc2c(c(-c3ccc(Cl)c(C#Cc4ccc5c(c4)CN[C@H](C(=O)N4CCCC4)C5)c3)nn2CCCN2CCOCC2)C1 [Example 466, (3S)-7-({2-Chloro-5-[5-(methylsulfonyl)-1-(3-morpholin-4-ylpropyl)-4,5,6,7-tetrahydro-1H-pyrazolo[4,3-c]pyridin-3-yl]phenyl}ethynyl)-3-(pyrrolidin-1-ylcarbonyl)-1,2,3,4-tetrahydroisoquinoline]"
2,1600,"Clc1ccc(C#Cc2cc(-c3nn(CCCN4CCOCC4)c4c3CNCC4)ccc2Cl)cc1 [Example 297, 3-{4-Chloro-3-[(4-chlorophenyl)ethynyl]phenyl}-1-(3-morpholin-4-ylpropyl)-4,5,6,7-tetrahydro-1H-pyrazolo[4,3-c]pyridine]"
3,370,"CS(=O)(=O)N1CCc2c(c(-c3ccc(Cl)c(C#Cc4ccc(CNCc5ccc(Cl)cc5)cc4)c3)nn2C[C@H](O)CN2CCOCC2)C1 [Example 264, (R)-1-[3-(4-Chloro-3-{4-[(4-chloro-benzylamino)-methyl]-phenylethynyl}-phenyl)-5-methanesulfonyl-4,5,6,7-tetrahydro-pyrazolo[4,3-c]pyridin-1-yl]-3-morpholin-4-yl-propan-2-ol]"
4,4920,"CN1CCN(CCCCc2cc(-c3nn(CCCN4CCC(N5CCCC5=O)CC4)c4c3CN(S(C)(=O)=O)CC4)ccc2Cl)CC1 [Example 112, 1-{1-[3-(3-{4-Chloro-3-[4-(4-methyl-piperazin-1-yl)-butyl]-phenyl}-5-methanesulfonyl-4,5,6,7-tetrahydro-pyrazolo[4,3-c]pyridin-1-yl)-propyl]-piperidin-4-yl}-pyrrolidin-2-one]"
5,450,"C[C@H]1COCCN1CCCn1nc(-c2ccc(Cl)c(C#Cc3ccc(Cl)c(CNCC(=O)O)c3)c2)c2c1CCNC2 [Example 553, N-[(2-Chloro-5-{[2-chloro-5-(1-{3-[(3S)-3-methylmorpholin-4-yl]propyl}-4,5,6,7-tetrahydro-1H-pyrazolo[4,3-c]pyridin-3-yl)phenyl]ethynyl}phenyl)methyl]glycine]"
6,90,"CS(=O)(=O)N1CCc2c(c(-c3ccc(Cl)c(C#Cc4ccc(CNCc5ccc(Cl)cc5)cc4)c3)nn2CC(O)CN2CCC(C(N)=O)CC2)C1 (stereo not shown) [Example 363, 1-{3-[3-(4-Chloro-3-{[4-({[(4-chlorophenyl)methyl]amino}methyl)phenyl]ethynyl}phenyl)-5-(methylsulfonyl)-4,5,6,7-tetrahydro-1H-pyrazolo[4,3-c]pyridin-1-yl]-2-hydroxypropyl}piperidine-4-carboxamide]"
7,2520,"Clc1ccc(CNCc2ccc(C#Cc3cc(-c4nn(CCCN5CCOCC5)c5c4CNCC5)ccc3Cl)cc2)cc1 [Example 166, 1-[4-({2-Chloro-5-[1-(3-morpholin-4-ylpropyl)-4,5,6,7-tetrahydro-1H-pyrazolo[4,3-c]pyridin-3-yl]phenyl}ethynyl)phenyl]-N-[(4-chlorophenyl)methyl]methanamine]"
8,500,"CS(=O)(=O)N1CCc2c(c(-c3ccc(Cl)c(CCCN4CCCCCC4)c3)nn2CCCN2CCC(N3CCCC3=O)CC2)C1 [Example 107, 1-[1-(3-{3-[3-(3-Azepan-1-yl-propyl)-4-chloro-phenyl]-5-methanesulfonyl-4,5,6,7-tetrahydro-pyrazolo[4,3-c]pyridin-1-yl}-propyl)-piperidin-4-yl]-pyrrolidin-2-one]"
9,100,"C[C@H]1COCCN1CCCn1nc(-c2ccc(Cl)c(C#Cc3ccc(Cl)c(COC4CCN(C(=O)OC(C)(C)C)C4)c3)c2)c2c1CCN(C(=O)C(N)=O)C2 (stereo partly drawn) [Example 559, tert-Butyl 3-[(5-{[5-(5-[amino(oxo)acetyl]-1-{3-[(3S)-3-methylmorpholin-4-yl]propyl}-4,5,6,7-tetrahydro-1H-pyrazolo[4,3-c]pyridin-3-yl)-2-chlorophenyl]ethynyl}-2-chlorobenzyl)oxy]pyrrolidine-1-carboxylate]"
10,3950,"CS(=O)(=O)N1CCc2c(c(-c3ccc(Cl)c(C#CCc4ccccc4)c3)nn2CCCN2CCOCC2)C1 [Example 41, 3-[4-Chloro-3-(3-phenyl-prop-1-ynyl)-phenyl]-5-methanesulfonyl-1-(3-morpholin-4-yl-propyl)-4,5,6,7-tetrahydro-1H-pyrazolo[4,3-c]pyridine]"
11,410,"CC(C)(C)OC(=O)NCc1ccc(C#Cc2cc(-c3nn(CCCN4CCOCC4)c4c3CN(S(C)(=O)=O)CC4)ccc2Cl)cc1 [Example 40, (4-{2-Chloro-5-[5-methanesulfonyl-1-(3-morpholin-4-yl-propyl)-4,5,6,7-tetrahydro-1H-pyrazolo[4,3-c]pyridin-3-yl]-phenylethynyl}-benzyl)-carbamic acid tert-butyl ester]"
12,20,"NC(=O)C(=O)N1CCc2c(c(-c3ccc(Cl)c(C#Cc4ccc(Cl)c(C(=O)NC[C@@H]5CCNC5)c4)c3)nn2CCCN2CCSCC2)C1 [Example 578, 5-[(5-{5-[Amino(oxo)acetyl]-1-(3-thiomorpholin-4-ylpropyl)-4,5,6,7-tetrahydro-1H-pyrazolo[4,3-c]pyridin-3-yl}-2-chlorophenyl)ethynyl]-2-chloro-N-[(3R)-pyrrolidin-3-ylmethyl]benzamide]"
13,13000,CN(C)S(=O)(=O)NCCCc1cc(-c2nn(CCCN3CCOCC3)c3c2CN(S(C)(=O)=O)CC3)ccc1Cl [Example 86]
14,40,"CNCCCNC(=O)c1ccc(C#Cc2cc(-c3nn(CCCN4CCOC[C@@H]4C)c4c3CN(C(=O)C(N)=O)CC4)ccc2Cl)cc1 [Example 613, 4-{[5-(5-[Amino(oxo)acetyl]-1-{3-[(3S)-3-methylmorpholin-4-yl]propyl}-4,5,6,7-tetrahydro-1H-pyrazolo[4,3-c]pyridin-3-yl)-2-chlorophenyl]ethynyl}-N-[3-(methylamino)propyl]benzamide]"
15,5620,"CN(C)CCCCc1cc(-c2nn(CCCN3CCC(N4CCCC4=O)CC3)c3c2CN(S(C)(=O)=O)CC3)ccc1Cl [Example 312, 1-(1-{3-[3-{4-Chloro-3-[4-(dimethylamino)butyl]phenyl}-5-(methylsulfonyl)-4,5,6,7-tetrahydro-1H-pyrazolo[4,3-c]pyridin-1-yl]propyl}piperidin-4-yl)pyrrolidin-2-one]"

# Same assay, conditions: CatS IC50
row,SMILES,IC50 [nM]
1,"C[C@H]1COCCN1CCCn1nc(-c2ccc(Cl)c(C#Cc3ccc(F)c(CNCc4ccccc4)c3)c2)c2c1CCN(S(C)(=O)=O)C2 [Example 539, 1-[5-({2-Chloro-5-[1-{3-[(3S)-3-methylmorpholin-4-yl]propyl}-5-(methylsulfonyl)-4,5,6,7-tetrahydro-1H-pyrazolo[4,3-c]pyridin-3-yl]phenyl}ethynyl)-2-fluorophenyl]-N-(phenylmethyl)methanamine]",210
2,"NC(=O)C(=O)N1CCc2c(c(-c3ccc(Cl)c(C#Cc4ccc(Cl)c(C(=O)N5CCCNCC5)c4)c3)nn2CCCN2CCSCC2)C1 [Example 569, 2-[3-(4-Chloro-3-{[4-chloro-3-(1,4-diazepan-1-ylcarbonyl)phenyl]ethynyl}phenyl)-1-(3-thiomorpholin-4-ylpropyl)-1,4,6,7-tetrahydro-5H-pyrazolo[4,3-c]pyridin-5-yl]-2-oxoacetamide]",150
3,"CS(=O)(=O)N1CCc2c(c(-c3ccc(Cl)c(C#Cc4ccc(CNCc5ccc(Cl)cc5)cc4)c3)nn2CCCN2CCCC2)C1 [Example 333, 1-[4-({2-Chloro-5-[5-(methylsulfonyl)-1-(3-pyrrolidin-1-ylpropyl)-4,5,6,7-tetrahydro-1H-pyrazolo[4,3-c]pyridin-3-yl]phenyl}ethynyl)phenyl]-N-[(4-chlorophenyl)methyl]methanamine]",180
4,"Cc1cccc(CNCc2ccc(C#Cc3cc(-c4nn(CCCN5CCSCC5)c5c4CN(C(N)=O)CC5)ccc3Cl)cc2)c1 [Example 508, 3-(4-Chloro-3-{[4-({[(3-methylphenyl)methyl]amino}methyl)phenyl]ethynyl}phenyl)-1-(3-thiomorpholin-4-ylpropyl)-1,4,6,7-tetrahydro-5H-pyrazolo[4,3-c]pyridine-5-carboxamide]",110
5,"C[C@H]1COCCN1CCCn1nc(-c2ccc(Cl)c(C#Cc3ccc(CNCc4ccsc4)cc3)c2)c2c1CCN(S(C)(=O)=O)C2 [Example 434, 1-[4-({2-Chloro-5-[1-{3-[(3S)-3-methylmorpholin-4-yl]propyl}-5-(methylsulfonyl)-4,5,6,7-tetrahydro-1H-pyrazolo[4,3-c]pyridin-3-yl]phenyl}ethynyl)phenyl]-N-(3-thienylmethyl)methanamine]",200
6,"CS(=O)(=O)N1CCc2c(c(-c3ccc(Cl)c(C#Cc4ccc5c(c4)CNC5)c3)nn2CCCN2CCOCC2)C1 [Example 393, 3-[4-Chloro-3-(2,3-dihydro-1H-isoindol-5-ylethynyl)phenyl]-5-(methylsulfonyl)-1-(3-morpholin-4-ylpropyl)-4,5,6,7-tetrahydro-1H-pyrazolo[4,3-c]pyridine]",220
7,"CNCCCNC(=O)c1ccc(C#Cc2cc(-c3nn(CCCN4CCSCC4)c4c3CN(C(N)=O)CC4)ccc2Cl)cc1 [Example 612, 3-{4-Chloro-3-[(4-{[3-(methylamino)propyl]carbamoyl}phenyl)ethynyl]phenyl}-1-(3-thiomorpholin-4-ylpropyl)-1,4,6,7-tetrahydro-5H-pyrazolo[4,3-c]pyridine-5-carboxamide]",80
8,"NC(=O)N1CCc2c(c(-c3ccc(Cl)c(C#Cc4ccc(CNCc5ccc(Cl)cc5)cc4)c3)nn2CCCN2CCN(C3CC3)CC2)C1 [Example 463, 3-(4-Chloro-3-{[4-({[(4-chlorophenyl)methyl]amino}methyl)phenyl]ethynyl}phenyl)-1-[3-(4-cyclopropylpiperazin-1-yl)propyl]-1,4,6,7-tetrahydro-5H-pyrazolo[4,3-c]pyridine-5-carboxamide]",110
9,"CS(=O)(=O)N1CCc2c(c(-c3ccc(Cl)c(C#Cc4ccc5cc[nH]c5n4)c3)nn2CCCN2CCOCC2)C1 [Example 482, 3-[4-Chloro-3-(1H-pyrrolo[2,3-b]pyridin-6-ylethynyl)phenyl]-5-(methylsulfonyl)-1-(3-morpholin-4-ylpropyl)-4,5,6,7-tetrahydro-1H-pyrazolo[4,3-c]pyridine]",180

# Same assay, conditions: CatS IC50, Table 2; average of results obtained
row,SMILES,IC50 [nM]
1,"Cc1ccccc1C#Cc1cc(-c2nn(CCCN3CCOCC3)c3c2CN(S(C)(=O)=O)CC3)ccc1Cl [Example 35, 3-(4-Chloro-3-o-tolylethynyl-phenyl)-5-methanesulfonyl-1-(3-morpholin-4-yl-propyl)-4,5,6,7-tetrahydro-1H-pyrazolo[4,3-c]pyridine]",1050
